In ChEMBL document CHEMBL1201862, “PubChem BioAssay data set” (2004):
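Grown in 96-well plates, cells were treated for 48 hours with each compound at five concentrations. Insufficient inhibition: endpoint recorded as highest concentration tested. Here, GI50 denotes the concentration required for 50% inhibition of growth.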 Activity calls are given as the source filed them. No stated cut-off is given here; in the data, active = GI50 up to about 1.1 µM and inactive = higher.

Legend:
Assay in all cases: NCI-60 cell line screen, 48 h
ACHN = tested on: ACHN
SNB-19 = tested on: SNB-19
NCI/ADR-RES = tested on: NCI/ADR-RES
OVCAR-8 = tested on: OVCAR-8
HL-60 = tested on: HL-60
CAKI-1 = tested on: CAKI-1
HCT-116 = tested on: HCT-116
BT-549 = tested on: BT-549
COLO 205 = tested on: COLO 205
U-251 = tested on: U-251
IGROV-1 = tested on: IGROV-1
NCI-H522 = tested on: NCI-H522
NCI-H23 = tested on: NCI-H23
DU-145 = tested on: DU-145
OVCAR-3 = tested on: OVCAR-3
OVCAR-4 = tested on: OVCAR-4
SR = tested on: SR
PC-3 = tested on: PC-3
MDA-MB-435 = tested on: MDA-MB-435
UACC-257 = tested on: UACC-257

Measured: GI50

Nc1cccc(S(=O)(=O)Nc2nnc(S(N)(=O)=O)s2)c1
inactive: ACHN > 100 µM | SNB-19 > 100 µM | NCI/ADR-RES > 100 µM | OVCAR-8 > 100 µM | HL-60 > 100 µM | CAKI-1 > 100 µM | HCT-116 > 100 µM | BT-549 > 100 µM | COLO 205 > 100 µM | U-251 > 100 µM | IGROV-1 > 100 µM | NCI-H522 > 100 µM | NCI-H23 > 100 µM | DU-145 > 100 µM | OVCAR-3 > 100 µM | OVCAR-4 > 100 µM | SR > 100 µM | PC-3 > 100 µM | MDA-MB-435 > 100 µM

CCN(CC)c1ccc2nc3ccc(/N=N/c4c(O)ccc5ccccc45)cc3[n+](-c3ccccc3)c2c1
inactive: ACHN > 100 µM | SNB-19 > 100 µM | NCI/ADR-RES > 100 µM | OVCAR-8 > 100 µM | HL-60 23.9 µM | CAKI-1 > 100 µM | HCT-116 > 100 µM | BT-549 > 100 µM | COLO 205 > 100 µM | U-251 > 100 µM | IGROV-1 > 100 µM | NCI-H522 > 100 µM | NCI-H23 > 100 µM | DU-145 > 100 µM | OVCAR-3 > 100 µM | OVCAR-4 > 100 µM | SR 1.47 µM | PC-3 > 100 µM | MDA-MB-435 > 100 µM | UACC-257 > 100 µM

OCC1OC(N2CCN(C3OC(CO)C(O)C(O)C3O)CC2)C(O)C(O)C1O (centres undefined)
inactive: ACHN > 100 µM | SNB-19 > 100 µM | NCI/ADR-RES > 100 µM | OVCAR-8 > 100 µM | CAKI-1 > 100 µM | HCT-116 > 100 µM | BT-549 > 100 µM | COLO 205 > 100 µM | U-251 > 100 µM | IGROV-1 > 100 µM | NCI-H522 > 100 µM | NCI-H23 > 100 µM | DU-145 > 100 µM | OVCAR-3 > 100 µM | OVCAR-4 > 100 µM | SR > 100 µM | PC-3 > 100 µM | MDA-MB-435 > 100 µM | UACC-257 > 100 µM

S=C(NN=C1NCCCCN1)Nc1ccccc1
inactive: ACHN 28.9 µM | SNB-19 > 100 µM | NCI/ADR-RES > 100 µM | OVCAR-8 36 µM | HL-60 14.6 µM | CAKI-1 > 100 µM | HCT-116 24.5 µM | BT-549 64.9 µM | COLO 205 6.68 µM | U-251 36.3 µM | IGROV-1 43.4 µM | NCI-H522 21.2 µM | NCI-H23 > 100 µM | DU-145 > 100 µM | OVCAR-3 40.4 µM | SR 13.1 µM | PC-3 45.7 µM | MDA-MB-435 39.7 µM | UACC-257 36 µM

COC(=O)C1=C(O)C(C(=O)OC)[C@]2(O)[C@H](C(=O)OC)[C@H]1C[C@@H](c1ccc(C(F)(F)F)cc1)[C@H]2C(=O)OC (some centres undefined)
inactive: ACHN 3.46 µM | SNB-19 3.87 µM | NCI/ADR-RES 2.33 µM | OVCAR-8 2.85 µM | HL-60 5.48 µM | CAKI-1 3.34 µM | HCT-116 2.54 µM | BT-549 3.25 µM | COLO 205 3.18 µM | U-251 2.41 µM | IGROV-1 5.15 µM | NCI-H23 3.58 µM | DU-145 4.24 µM | OVCAR-3 3.78 µM | OVCAR-4 5.55 µM | SR 2.56 µM | PC-3 3.48 µM | MDA-MB-435 3.36 µM | UACC-257 4.6 µM

Clc1cc2ncn(C3CCCCO3)c2cc1Cl (centres undefined)
inactive: SNB-19 > 100 µM | NCI/ADR-RES 36.9 µM | OVCAR-8 56.6 µM | HL-60 30.1 µM | CAKI-1 39.4 µM | HCT-116 51.9 µM | BT-549 22.2 µM | COLO 205 77.3 µM | U-251 39.5 µM | IGROV-1 20.1 µM | NCI-H522 4.7 µM | NCI-H23 70.3 µM | DU-145 81.8 µM | OVCAR-3 41 µM | OVCAR-4 48.9 µM | SR 28.1 µM | PC-3 34.6 µM | MDA-MB-435 75.9 µM

C[N+]1(CCN[N+]2(C)CCCCC2)CCc2ccccc2C1 (centres undefined)
inactive: ACHN > 100 µM | SNB-19 > 100 µM | NCI/ADR-RES > 100 µM | OVCAR-8 > 100 µM | CAKI-1 > 100 µM | HCT-116 > 100 µM | BT-549 > 100 µM | COLO 205 > 100 µM | U-251 > 100 µM | IGROV-1 > 100 µM | NCI-H522 > 100 µM | NCI-H23 > 100 µM | DU-145 > 100 µM | OVCAR-3 > 100 µM | OVCAR-4 > 100 µM | SR > 100 µM | PC-3 > 100 µM | MDA-MB-435 > 100 µM | UACC-257 > 100 µM

CC(C)Nc1n[nH]c(=O)n1C(C)C
inactive: ACHN > 100 µM | SNB-19 > 100 µM | NCI/ADR-RES > 100 µM | OVCAR-8 > 100 µM | HL-60 > 100 µM | CAKI-1 > 100 µM | HCT-116 > 100 µM | BT-549 > 100 µM | COLO 205 > 100 µM | U-251 > 100 µM | IGROV-1 > 100 µM | NCI-H23 > 100 µM | DU-145 > 100 µM | OVCAR-3 > 100 µM | SR > 100 µM | PC-3 > 100 µM | MDA-MB-435 > 100 µM | UACC-257 > 100 µM

CN(CCCn1ccnc1[N+](=O)[O-])CCCn1ccnc1[N+](=O)[O-]
inactive: ACHN > 100 µM | NCI/ADR-RES > 100 µM | OVCAR-8 > 100 µM | HL-60 > 100 µM | CAKI-1 > 100 µM | HCT-116 > 100 µM | BT-549 > 100 µM | COLO 205 > 100 µM | U-251 > 100 µM | IGROV-1 > 100 µM | NCI-H522 > 100 µM | NCI-H23 > 100 µM | DU-145 > 100 µM | OVCAR-3 > 100 µM | OVCAR-4 > 100 µM | SR > 100 µM | PC-3 > 100 µM | MDA-MB-435 > 100 µM | UACC-257 > 100 µM

Nc1nc(Cl)cc(NC23CC4CC(CC(C4)C2)C3)n1
inactive: ACHN > 100 µM | SNB-19 > 100 µM | NCI/ADR-RES 42.9 µM | OVCAR-8 90.6 µM | CAKI-1 > 100 µM | HCT-116 78.2 µM | BT-549 61.7 µM | COLO 205 81.8 µM | U-251 32 µM | IGROV-1 57.3 µM | NCI-H522 31 µM | NCI-H23 34 µM | DU-145 > 100 µM | OVCAR-3 > 100 µM | OVCAR-4 > 100 µM | SR > 100 µM | PC-3 29.2 µM | MDA-MB-435 > 100 µM | UACC-257 > 100 µM
